In PMC8586704 (Frontiers in Chemistry, 2021):
Values after ≈ are worked out from the molar mass of the structure shown. Where two headings read alike, the source gives them in different places. Starred links: 1 amine or outer side, 2 acyl side, 3 side chain; linkers in the order of their positions; H or OH if unused. Non-standard residues stand in square brackets, D forms with d. Residues, ends and D or L forms follow the SMILES beside them. Groups on a side chain read outwards from the residue. X13 = C[C@@H](C[C@@H](C(=O)[*:2])N(C)[*:1])C(=O)NCc1ccc(C(F)(F)F)cc1; Trp(1-(1,1-Me2-allyl)) = C=CC(C)(C)n1cc(C[C@H](N)C(=O)O)c2ccccc21; NMeGlu(4S-Me) = C[C@@H](C[C@@H](C(=O)[*:2])N(C)[*:1])C(=O)[*:3]; X14 = C[C@@H](C[C@@H](C(=O)[*:2])N(C)[*:1])C(=O)NCc1ccc(Cl)cc1; X6 = C[C@@H](C[C@@H](C(=O)[*:2])N(C)[*:1])C(=O)NNC(=O)c1ccncc1; X1 = C[C@@H](C[C@@H](C(=O)[*:2])N(C)[*:1])C(=O)NCc1ccc(F)cc1; X12 = C[C@@H](C[C@@H](C(=O)[*:2])N(C)[*:1])C(=O)NCc1ccccc1; Tyr(3-NO2) = N[C@@H](Cc1ccc(O)c([N+](=O)[O-])c1)C(=O)O; Gly(E-crotyl) = C/C=C/C[C@H](N)C(=O)O; NMeL = CN[C@@H](CC(C)C)C(=O)O

Key:
M. tuberculosis H37Rv = experiment: Antitubercular activity assay, broth dilution, auto-luminescent strain; type: cell-based, Mycobacterium tuberculosis
MCF-7 = experiment: cells; type: cell-based; details: Homo sapiens, MCF7; breast adenocarcinoma cell line
HeLa = experiment: cells; type: cell-based; details: Homo sapiens, cervical carcinoma cell line
HepG2 = experiment: cells; type: cell-based; details: Homo sapiens, hepatocellular carcinoma cell line
A549 = experiment: Cytotoxicity assay (CCK-8); type: cell-based; details: Homo sapiens, lung cancer cell line
HCT116 = experiment: cells; type: cell-based; details: Homo sapiens, HCT-116; colon cancer cell line
L02 = experiment: cells; type: cell-based; details: normal human hepatic cell line
Huvec-12 = experiment: Cytotoxicity assay (CCK-8); type: cell-based; details: normal human umbilical vein endothelial cell line
[1] = Day 3rd, read-out: MICs against H37Rv, Day 3rd
[2] = Day 14th, read-out: MICs against H37Rv, Day 14th
[3] = Mycobacterium tuberculosis, H37RV, Day 3rd, read-out: MICs against H37Rv, Day 3rd
[4] = Mycobacterium tuberculosis, H37RV, Day 7th, read-out: MICs against H37Rv, Day 7th
[5] = Mycobacterium tuberculosis, H37RV, Day 14th, read-out: MICs against H37Rv, Day 14th
[6] = Mycobacterium tuberculosis, H37RV, read-out: MICs against H37Rv, Day 3rd
[7] = Mycobacterium tuberculosis, H37RV, read-out: MICs against H37Rv, Day 7th
[8] = Mycobacterium tuberculosis, H37RV, read-out: MICs against H37Rv, Day 14th

SMILES: C=CC(C)(C)n1cc(C[C@@H]2NC(=O)[C@H](C/C=C/C)NC(=O)[C@H](CC(C)C)NC(=O)[C@H](C[C@H](C)C(=O)N[C@@H](Cc3ccc(O)cc3)C(=O)OC)N(C)C(=O)[C@H](C)NC(=O)[C@H](Cc3ccc(O)c([N+](=O)[O-])c3)NC(=O)[C@H](CC(C)C)N(C)C2=O)c2ccccc21 [Compound 8, ilamycin NJL8] (cyclo(A[NMeGlu(4S-Me)]([Tyr-OMe])L[Gly(E-crotyl)][Trp(1-(1,1-Me2-allyl))][NMeL][Tyr(3-NO2)]))
- MIC (M. tuberculosis H37Rv; [1]): 1.6 µM (≈ 1.95 µg/mL)
- MIC (M. tuberculosis H37Rv; [2]): 1.6 µM (≈ 1.95 µg/mL)
- MIC (M. tuberculosis H37Rv; [3]): 1.6 to 3.5 µM (≈ 1.95 to 4.27 µg/mL)
- MIC (M. tuberculosis H37Rv; [4]): 1.6 µM (≈ 1.95 µg/mL)
- MIC (M. tuberculosis H37Rv; [5]): 1.6 to 1.7 µM (≈ 1.95 to 2.07 µg/mL)
- IC50 (MCF-7): > 50 µM
- IC50 (HeLa): > 50 µM
- IC50 (HepG2): > 50 µM
- IC50 (A549): > 50 µM
- IC50 (HCT116): > 50 µM
- IC50 (L02): > 50 µM
- IC50 (Huvec-12): > 50 µM

SMILES: C=CC(C)(C)n1cc(C[C@@H]2NC(=O)[C@H](C/C=C/C)NC(=O)[C@H](CC(C)C)NC(=O)[C@H](C[C@H](C)C(=O)NCc3ccccc3)N(C)C(=O)[C@H](C)NC(=O)[C@H](Cc3ccc(O)c([N+](=O)[O-])c3)NC(=O)[C@H](CC(C)C)N(C)C2=O)c2ccccc21 [Compound 9, ilamycin NJL9] (cyclo(A[X12]L[Gly(E-crotyl)][Trp(1-(1,1-Me2-allyl))][NMeL][Tyr(3-NO2)]))
- MIC (M. tuberculosis H37Rv; [3]): 3.5 µM (≈ 3.96 µg/mL)
- MIC (M. tuberculosis H37Rv; [4]): 3.5 µM (≈ 3.96 µg/mL)
- MIC (M. tuberculosis H37Rv; [5]): 3.5 µM (≈ 3.96 µg/mL)
- IC50 (MCF-7): > 50 µM
- IC50 (HeLa): > 50 µM
- IC50 (HepG2): > 50 µM
- IC50 (A549): > 50 µM
- IC50 (HCT116): > 50 µM
- IC50 (L02): > 50 µM
- IC50 (Huvec-12): > 50 µM

SMILES: C=CC(C)(C)n1cc(C[C@@H]2NC(=O)[C@H](C/C=C/C)NC(=O)[C@H](CC(C)C)NC(=O)[C@H](C[C@H](C)C(=O)NCc3ccc(F)cc3)N(C)C(=O)[C@H](C)NC(=O)[C@H](Cc3ccc(O)c([N+](=O)[O-])c3)NC(=O)[C@H](CC(C)C)N(C)C2=O)c2ccccc21 [Compound 10, ilamycin NJL10] (cyclo(A[X1]L[Gly(E-crotyl)][Trp(1-(1,1-Me2-allyl))][NMeL][Tyr(3-NO2)]))
- increase of anti-TB activity compared with ilamycin F (M. tuberculosis H37Rv; Day 3rd): 9–19 fold
- MIC (M. tuberculosis H37Rv; [1]): 1.7 µM (≈ 1.95 µg/mL)
- more potent MIC value than that of 9 and 11 (M. tuberculosis H37Rv; Day 14th): 2 fold
- MIC (M. tuberculosis H37Rv; [2]): 1.7 µM (≈ 1.95 µg/mL)
- MIC (M. tuberculosis H37Rv; [3]): 1.6 to 3.5 µM (≈ 1.84 to 4.02 µg/mL)
- MIC (M. tuberculosis H37Rv; [4]): 1.7 µM (≈ 1.95 µg/mL)
- MIC (M. tuberculosis H37Rv; [5]): 1.6 to 1.7 µM (≈ 1.84 to 1.95 µg/mL)
- IC50 (MCF-7): > 50 µM
- IC50 (HeLa): > 50 µM
- IC50 (HepG2): > 50 µM
- IC50 (A549): > 50 µM
- IC50 (HCT116): > 50 µM
- IC50 (L02): > 50 µM
- IC50 (Huvec-12): > 50 µM

SMILES: C=CC(C)(C)n1cc(C[C@@H]2NC(=O)[C@H](C/C=C/C)NC(=O)[C@H](CC(C)C)NC(=O)[C@H](C[C@H](C)C(=O)NCc3ccc(Cl)cc3)N(C)C(=O)[C@H](C)NC(=O)[C@H](Cc3ccc(O)c([N+](=O)[O-])c3)NC(=O)[C@H](CC(C)C)N(C)C2=O)c2ccccc21 [Compound 11, ilamycin NJL11] (cyclo(A[X14]L[Gly(E-crotyl)][Trp(1-(1,1-Me2-allyl))][NMeL][Tyr(3-NO2)]))
- MIC (M. tuberculosis H37Rv; [3]): 3.4 µM (≈ 3.96 µg/mL)
- MIC (M. tuberculosis H37Rv; [4]): 3.4 µM (≈ 3.96 µg/mL)
- MIC (M. tuberculosis H37Rv; [5]): 3.4 µM (≈ 3.96 µg/mL)
- IC50 (MCF-7): > 50 µM
- IC50 (HeLa): > 50 µM
- IC50 (HepG2): > 50 µM
- IC50 (A549): > 50 µM
- IC50 (HCT116): > 50 µM
- IC50 (L02): > 50 µM
- IC50 (Huvec-12): > 50 µM

SMILES: C=CC(C)(C)n1cc(C[C@@H]2NC(=O)[C@H](C/C=C/C)NC(=O)[C@H](CC(C)C)NC(=O)[C@H](C[C@H](C)C(=O)NCc3ccc(C(F)(F)F)cc3)N(C)C(=O)[C@H](C)NC(=O)[C@H](Cc3ccc(O)c([N+](=O)[O-])c3)NC(=O)[C@H](CC(C)C)N(C)C2=O)c2ccccc21 [Compound 12, ilamycin NJL12] (cyclo(A[X13]L[Gly(E-crotyl)][Trp(1-(1,1-Me2-allyl))][NMeL][Tyr(3-NO2)]))
- MIC (M. tuberculosis H37Rv; [6]): > 100 µM
- MIC (M. tuberculosis H37Rv; [7]): > 100 µM
- MIC (M. tuberculosis H37Rv; [8]): > 100 µM
- IC50 (MCF-7): > 50 µM
- IC50 (HeLa): > 50 µM
- IC50 (HepG2): > 50 µM
- IC50 (A549): > 50 µM
- IC50 (HCT116): > 50 µM
- IC50 (L02): > 50 µM
- IC50 (Huvec-12): > 50 µM

SMILES: C=CC(C)(C)n1cc(C[C@@H]2NC(=O)[C@H](C/C=C/C)NC(=O)[C@H](CC(C)C)NC(=O)[C@H](C[C@H](C)C(=O)NNC(=O)c3ccncc3)N(C)C(=O)[C@H](C)NC(=O)[C@H](Cc3ccc(O)c([N+](=O)[O-])c3)NC(=O)[C@H](CC(C)C)N(C)C2=O)c2ccccc21 [Compound 13, ilamycin NJL13] (cyclo(A[X6]L[Gly(E-crotyl)][Trp(1-(1,1-Me2-allyl))][NMeL][Tyr(3-NO2)]))
- MIC (M. tuberculosis H37Rv; [6]): 27.6 µM (≈ 32.1 µg/mL)
- MIC (M. tuberculosis H37Rv; [7]): 27.6 µM (≈ 32.1 µg/mL)
- MIC (M. tuberculosis H37Rv; [8]): 27.6 µM (≈ 32.1 µg/mL)
- IC50 (MCF-7): > 50 µM
- IC50 (HeLa): > 50 µM
- IC50 (HepG2): > 50 µM
- IC50 (A549): > 50 µM
- IC50 (HCT116): > 50 µM
- IC50 (L02): > 50 µM
- IC50 (Huvec-12): > 50 µM

SMILES: COc1cccc2c1C(=O)c1c(O)c3c(c(O)c1C2=O)C[C@@](O)(C(=O)CO)C[C@@H]3O[C@H]1C[C@H](N)[C@H](O)[C@H](C)O1 [doxorubicin, reference compound]
- IC50 (MCF-7): 4 µM
- IC50 (HeLa): 0.7 µM
- IC50 (HepG2): 0.6 µM
- IC50 (A549): 1.5 µM
- IC50 (HCT116): 4 µM
- IC50 (L02): 7.7 µM
- IC50 (Huvec-12): 12 µM
